Measured values as given in patent US20060276464A1, “Diarylsulfone sulfonamides and use thereof” (Wyeth, priority 2005, published 2006).
Structures can show the parent of a compound that is named as a salt.

Key:
[1] = biological target: T1, SFRP-1 (Homo sapiens, UniProt Q8N474); experiment: Cell-based assay for in vitro measurement of SFRP-1/SARP2 antagonist activity (U2OS cells co-transfected with 16x TCF-tk-Luciferase reporter, Wnt and hSFRP-1); conditions: for fold induction at 10 µM: U2OS, read-out: Fold Induction with SFRP-1, U2OS cells, single dose 10 μM, luciferase reporter, fold induction over SFRP-1 control;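 on all read-outs here: U2OS cells co-transfected with a TCF-tk luciferase reporter, a Wnt vector, hSFRP-1 or empty vector and CMV-βgal, luciferase luminescence read in cell lysates alongside βgal activity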
T1 sequence (Q8N474 32-314): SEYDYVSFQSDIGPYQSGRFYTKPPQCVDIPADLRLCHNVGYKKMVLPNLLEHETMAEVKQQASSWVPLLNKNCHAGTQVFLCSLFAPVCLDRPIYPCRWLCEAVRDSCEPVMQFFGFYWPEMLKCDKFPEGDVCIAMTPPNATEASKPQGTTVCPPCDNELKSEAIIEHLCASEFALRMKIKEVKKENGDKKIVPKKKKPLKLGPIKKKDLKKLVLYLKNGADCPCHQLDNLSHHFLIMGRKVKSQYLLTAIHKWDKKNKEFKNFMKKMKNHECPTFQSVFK

[2] = biological target: T1, SFRP-1; experiment: Fluorescence polarization binding assay (competitive displacement of a probe compound from SFRP-1); conditions: fluorescence anisotropy, 45 nM SFRP-1, 20 nM probe;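 further: test compound competes with a fluorescent probe held by SFRP-1, seen as a drop in probe anisotropy after incubation in darkness, with anisotropy as function of rising compound dose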

fold induction at 10 µM [1] | IC50 [2] | EC50 [1] | SMILES
3.8 | 3000 nM |  | O=S(=O)(N[C@@H]1CCCNC1)c1cc(S(=O)(=O)c2ccccc2)ccc1C(F)(F)F [Example 791, 5-(phenylsulfonyl)-N-[(3R)-piperidin-3-yl]-2-(trifluoromethyl)benzenesulfonamide]
1.4 | 200 nM | 2290 nM | Cc1cc2cc(S(=O)(=O)c3ccc(C(F)(F)F)c(S(=O)(=O)NC4CCNCC4)c3)ccc2n1C [Example 792, 5-[(1,2-dimethyl-1H-indol-5-yl)sulfonyl]-N-piperidin-4-yl-2-(trifluoromethyl)benzenesulfonamide]
2.5 | 600 nM | 1540 nM | CN(CCNS(=O)(=O)c1cc(S(=O)(=O)c2ccccc2)ccc1C(F)(F)F)C(=O)OC(C)(C)C [Example 793, tert-Butyl methyl[2-({[5-(phenylsulfonyl)-2-(trifluoromethyl)phenyl]sulfonyl}amino)ethyl]carbamate]
3.3 | 100 nM | 534 nM | CC(C)(C)OC(=O)N1CC[C@H](NS(=O)(=O)c2cc(S(=O)(=O)c3ccccc3)ccc2C(F)(F)F)C1 [Example 794, tert-butyl(3S)-3-({[5-(phenylsulfonyl)-2-(trifluoromethyl)phenyl]sulfonyl}amino)pyrrolidine-1-carboxylate]
3.8 | 80 nM | 140 nM | CC(C)(C)OC(=O)N1CC[C@@H](NS(=O)(=O)c2cc(S(=O)(=O)c3ccccc3)ccc2C(F)(F)F)C1 [Example 795, tert-butyl(3R)-3-({[5-(phenylsulfonyl)-2-(trifluoromethyl)phenyl]sulfonyl}amino)pyrrolidine-1-carboxylate]
4.3 | 600 nM | 1350 nM | O=S(=O)(N[C@H]1CCNC1)c1cc(S(=O)(=O)c2ccccc2)ccc1C(F)(F)F [Example 796, 5-(phenylsulfonyl)-N-[(3S)-pyrrolidin-3-yl]-2-(trifluoromethyl)benzenesulfonamide]
3.5 | 800 nM |  | O=S(=O)(N[C@@H]1CCNC1)c1cc(S(=O)(=O)c2ccccc2)ccc1C(F)(F)F [Example 797, 5-(phenylsulfonyl)-N-[(3R)-pyrrolidin-3-yl]-2-(trifluoromethyl)benzenesulfonamide]
1.8 | 4000 nM |  | Cc1ccc(S(=O)(=O)c2ccccc2)cc1S(=O)(=O)NC1CCSCC1 [Example 798, 2-methyl-5-(phenylsulfonyl)-N-(tetrahydro-2H-thiopyran-4-yl)benzenesulfonamide]
2.2 | 8000 nM |  | CNCCNS(=O)(=O)c1cc(S(=O)(=O)c2ccccc2)ccc1C(F)(F)F [Example 799, N-[2-(Methylamino)ethyl]-5-(phenylsulfonyl)-2-(trifluoromethyl)benzenesulfonamide hydrochloride]
3.6 | 400 nM | 738 nM | O=C(c1ccccc1)c1ccc(C(=O)N2CCC(NS(=O)(=O)c3cc(S(=O)(=O)c4ccccc4)ccc3C(F)(F)F)CC2)cc1 [Example 800, N-[1-(4-benzoylbenzoyl)piperidin-4-yl]-5-(phenylsulfonyl)-2-(trifluoromethyl)benzenesulfonamide]
3.4 | 180 nM | 1080 nM | O=C(c1ccccc1)c1cccc(C(=O)N2CCC(NS(=O)(=O)c3cc(S(=O)(=O)c4ccccc4)ccc3C(F)(F)F)CC2)c1 [Example 801, N-[1-(3-benzoylbenzoyl)piperidin-4-yl]-5-(phenylsulfonyl)-2-(trifluoromethyl)benzenesulfonamide]
4.5 | 120 nM | 307 nM | O=S(=O)(NCCc1cccnc1)c1cc(S(=O)(=O)c2ccc(O)cc2)ccc1C(F)(F)F [Example 814, 5-[(4-hydroxyphenyl)sulfonyl]-N-(2-pyridin-3-ylethyl)-2-(trifluoromethyl)benzenesulfonamide]
2.2 | 1800 nM |  | CC(C)c1ccc(S(=O)(=O)c2ccc(F)cc2)cc1S(=O)(=O)NC1CCSCC1 [Example 815, 5-[(4-fluorophenyl)sulfonyl]-2-isopropyl-N-(tetrahydro-2H-thiopyran-4-yl)benzenesulfonamide]
3.8 | 270 nM | 1510 nM | O=S(=O)(NCCn1ccnc1)c1cc(S(=O)(=O)c2ccc(F)cc2)ccc1C(F)(F)F [Example 816, 5-[(4-fluorophenyl)sulfonyl]-N-[2-(1H-imidazol-1-yl)ethyl]-2-(trifluoromethyl)benzenesulfonamide]
3.3 | 300 nM | 1140 nM | O=S(=O)(NC1CCOCC1)c1cc(S(=O)(=O)c2ccc(F)cc2)ccc1C(F)(F)F [Example 817, 5-[(4-fluorophenyl)sulfonyl]-N-(tetrahydro-2H-pyran-4-yl)-2-(trifluoromethyl)benzenesulfonamide]
2.6 | 300 nM | 1320 nM | CC(C)(C)OC(=O)N1CCC(NS(=O)(=O)c2cc(S(=O)(=O)c3ccc(F)cc3)ccc2C(F)(F)F)CC1 [Example 818, tert-butyl 4-({[5-[(4-fluorophenyl)sulfonyl]-2-(trifluoromethyl)phenyl]sulfonyl}amino)piperidine-1-carboxylate]
3.3 | 220 nM | 1570 nM | CN(CCNS(=O)(=O)c1cc(S(=O)(=O)c2ccccc2)ccc1C(F)(F)F)C(=O)c1ccccc1 [Example 819, N-Methyl-N-[2-({[5-(phenylsulfonyl)-2-(trifluoromethyl)phenyl]sulfonyl}amino)ethyl]benzamide]
4.1 | 250 nM | 797 nM | COc1ccc(S(=O)(=O)c2ccc(C(F)(F)F)c(S(=O)(=O)NCCC#N)c2)cc1 [Example 820, N-(2-cyanoethyl)-5-[(4-methoxyphenyl)sulfonyl]-2-(trifluoromethyl)benzenesulfonamide]
5.1 | 300 nM | 626 nM | N#CCCNS(=O)(=O)c1cc(S(=O)(=O)c2ccc(O)cc2)ccc1C(F)(F)F [Example 821, N-(2-cyanoethyl)-5-[(4-hydroxyphenyl)sulfonyl]-2-(trifluoromethyl)benzenesulfonamide]
3.4 | 200 nM | 1840 nM | COc1ccc(C(=O)N(C)CCNS(=O)(=O)c2cc(S(=O)(=O)c3ccccc3)ccc2C(F)(F)F)cc1 [Example 822, 4-Methoxy-N-methyl-N-[2-({[5-(phenylsulfonyl)-2-(trifluoromethyl)phenyl]sulfonyl}amino)ethyl]benzamide]
2.6 | 800 nM | 3000 nM | O=S(=O)(NC1c2ccccc2CC1O)c1cc(S(=O)(=O)c2ccccc2)ccc1C(F)(F)F (stereo not shown) [Example 823, N-(2-hydroxy-2,3-dihydro-1H-inden-1-yl)-5-(phenylsulfonyl)-2-(trifluoromethyl)benzenesulfonamide]
3.5 | 700 nM | 1920 nM | CN(CCNS(=O)(=O)c1cc(S(=O)(=O)c2ccccc2)ccc1C(F)(F)F)C(=O)Nc1ccccc1 [Example 826, N-{2-[(anilinocarbonyl)(methyl)amino]ethyl}-5-(phenylsulfonyl)-2-(trifluoromethyl)benzenesulfonamide]
